Measured values published in patent US6878388B1, “Vanadium compounds for treating proliferative cell disorders” (Parker Hughes Institute, priority 2000, dated 2005).
Like-named read-outs stand apart in the source and are kept apart here.

Key:
[1] = system: U87 human glioblastoma xenografts; assay: SCID mouse xenograft model of human glioblastoma; type: in vivo, SCID mice
Procedure: FIGS. 1A-1B illustrate the in vivo antitumor activity of the vanadium compound, [VO(SO4)(Me2-Phen)2] against human glioblastoma and breast cancer in SCID mice. The effects of daily treatment with [VO(SO4)(Me2-Phen)2] (10 mg/kg/day) or 5% DMSO in PBS (given five days per week for four weeks beginning the day after inoculation) on tumor growth and progression of glioblastoma (FIG. 1A) and breast cancer (FIG. 1B) are illustrated. Comparisons between groups were done using the log-rank test.
The animal protocols used in this study were approved by the Parker Hughes Institute Institutional Animal Care and Use Committee (IACUC). […]
The right and left hind legs of the SCID mice were inoculated subcutaneously with 1×10^6 U87 human glioblastoma and 1×10^6 MDA-MB-231 beast cancer cells, respectively, in 0.1 mL PBS. […] Mice were monitored daily for health status as well as tumor growth and were sacrificed if they became moribund, developed tumors which impeded their ability to attain food or water, or at the ed of the six-week observation period. Tumors were measured using Vernier calipers three times per week. Tumor volumes were calculated according to the following formula, as described previously (Narla et al., Clin Cancer Res., 4: 1405-14, 1998; Friedman et al., Cancer Res., 55: 2853-2857, 1995): Tumor volume=(Width)^2(Length)/2. […]

U87 glioblastoma cells = assay: In vitro adhesion assay to ECM proteins, U87; type: cell-based, human; conditions: 16 h pretreatment, mean ± SE of 3 experiments
Procedure: In vitro adhesion assays were used to evaluate the effects of [VO(SO4)(Me2-Phen)2] on the adhesive properties of U87 and MDA-MD-231 cells as described previously (Narla et al., Clin Cancer Res, 4: 2463-2471, 1998). The plates for the adhesion assays were pre-coated with the extracellular matrix (ECM) proteins laminin, fibronectin, vitronectin and type IV collagen (each at a final concentration of 1 μg/ml in PBS) overnight at 4° C. and dried. Exponentially-growing cells (as described in the previous Example) were incubated with [VO(SO4)(Me2-Phen)2] at concentrations ranging from 0.5 μM to 25 μM for 16 hours in a humidified 5% CO2 atmosphere. The cells were then detached from the flasks with 0.05% trypsin (Life Technologies), resuspended in medium, incubated at 37° C. for 2 hours to allow them to recover from the trypsinization stress and examined for their ability to adhere to the plates precoated with ECM proteins. Cells were centrifuged, washed twice with serum-free medium, counted and resuspended in serum-free medium at a final concentration of 2.5×10^5 cells/ml. The cell suspension was added to each well in aliquots of 100 μl and the cells were allowed to adhere for one hour at 37° C. in a humidified 5% CO2atmosphere. The non-adherent cells were removed by gently washing the cells with PBS. The adherent fraction was quantitated using MTT assays as previously described (Narla, Supra).
U87 glioblastoma and MDA-MD-231 breast cancer cells were preincubated with various concentrations of [VO(SO4)(Me2-Phen)2] and processed for adhesion assays. [VO(SO4)(Me2-Phen)2] inhibited adhesion of the U87 and MDA-MB-231 cells to extracellular matrix (ECM) proteins, Pretreatment of cells with [VO(SO4)(Me2-Phen)2] inhibited the adhesion of U87 glioblastoma and MDA-MB-231 breast cancer cells to laminin-, fibronectin-, vitronectin- and collagen-coated plates. The inhibition of glioblastoma cell adhesion was concentration-dependent with mean (±SE) IC50 values from 3 independent experiments shown in the table below.

Cc1ccnc2c1ccc1c(C)ccnc12.Cc1ccnc2c1ccc1c(C)ccnc12.O=S(=O)([O-])[O-].[O]=[V+2] [[VO(SO4)(Me2-Phen)2], bis(4,7-dimethyl-1,10-phenanthroline) sulfatooxovanadium (IV)]
average size of tumor xenografts ([1]; U87, 1.5 months after inoculation, 10 mg/kg i.p., vehicle control 6928±653, P=0.007): 3199±646 mm^3 | mice remaining alive and free of detectable tumors for >16 days ([1]; U87 xenografts, 10 mg/kg/dose i.p., five days per week for four weeks): 40% | IC50 (U87 glioblastoma cells; U87, fibronectin-coated plates, read-out: IC50 inhibition of adhesion to fibronectin): 1300 nM | IC50 (U87 glioblastoma cells; U87, laminin-coated plates, read-out: IC50 inhibition of adhesion to laminin): 1400 ± 100 nM | IC50 (U87 glioblastoma cells; U87, type IV collagen-coated plates, read-out: IC50 inhibition of adhesion to collagen): 1200 nM | IC50 (U87 glioblastoma cells; U87, vitronectin-coated plates, read-out: IC50 inhibition of adhesion to vitronectin): 1200 ± 100 nM
